Source: PubChem BioAssay AID248 (DTP/NCI, 2004)
Where “and” joins values, the source holds several entries; their conditions need not be identical. Identical values can stand only once. Toxic doses and inconclusive results are not listed. Rule as the data show it: active = T/C of 150% or more; inactive = T/C below 125%.

Tested on: L1210 leukemia ip in BDF1 mice, survival T/C
Test: NCI In Vivo Anticancer Drug Screen. Data for tumor model L1210 Leukemia (intraperitoneal) in B6D2F1 (BDF1) mice
Details: endpoint: mean survival time, higher = longer survival
In short: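 Transplanted-tumor mice were given test agent; controls received vehicle only. Survival readings from the two groups were divided (treated over control).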

[1] = dose: 50.0 mg/kg/injection, schedule: Q01DX009 (ip), vehicle: Klucel (hydroxypropylcellulose) (HPC)
[2] = dose: 100.0 mg/kg/injection, schedule: Q01DX009 (ip), vehicle: Klucel (hydroxypropylcellulose) (HPC)
[3] = dose: 100.0 mg/kg/injection, schedule: Q04DX003 (ip), vehicle: Klucel (hydroxypropylcellulose) (HPC)
[4] = dose: 200.0 mg/kg/injection, schedule: Q04DX003 (ip), vehicle: Klucel (hydroxypropylcellulose) (HPC)
[5] = dose: 100.0 mg/kg/injection, schedule: Q04DX003 (ip), vehicle: saline with Tween-80
[6] = dose: 200.0 mg/kg/injection, schedule: Q04DX003 (ip), vehicle: saline with Tween-80
[7] = dose: 400.0 mg/kg/injection, schedule: Q04DX003 (ip), vehicle: saline with Tween-80
[8] = dose: 100.0 mg/kg/injection, schedule: Q01DX009 (ip), vehicle: saline with Tween-80
[9] = dose: 200.0 mg/kg/injection, schedule: Q01DX009 (ip), vehicle: saline with Tween-80
[10] = dose: 400.0 mg/kg/injection, schedule: Q01DX009 (ip), vehicle: saline with Tween-80
[11] = dose: 100.0 mg/kg/injection, schedule: Q04DX002 (ip), vehicle: Klucel (hydroxypropylcellulose) (HPC)
[12] = dose: 200.0 mg/kg/injection, schedule: Q04DX002 (ip), vehicle: Klucel (hydroxypropylcellulose) (HPC)
[13] = dose: 400.0 mg/kg/injection, schedule: Q04DX002 (ip), vehicle: Klucel (hydroxypropylcellulose) (HPC)
[14] = dose: 50.0 mg/kg/injection, schedule: Q01DX009 (ip), vehicle: saline with Tween-80
[15] = dose: 200.0 mg/kg/injection, schedule: Q01DX009 (ip), vehicle: Klucel (hydroxypropylcellulose) (HPC)

Measured: T/C

N#Cc1cnc(N)cc1N
inactive: dose: 25.0 mg/kg/injection, schedule: Q01DX009 (ip), vehicle: Klucel (hydroxypropylcellulose) (HPC) 96 % of control | dose: 25.0 mg/kg/injection, schedule: Q04DX003 (ip), vehicle: Klucel (hydroxypropylcellulose) (HPC) 97 % of control | [1] 98 % of control | dose: 50.0 mg/kg/injection, schedule: Q04DX003 (ip), vehicle: Klucel (hydroxypropylcellulose) (HPC) 100 % of control | [2] 104 % of control | [3] 101 % of control and 104 % of control | [4] 113 % of control

CC(C)CCNC(=O)NS(=O)(=O)c1ccc(Cl)cc1
inactive: [5] 107 % of control | [6] 97 % of control | [7] 100 % of control

O=C(O)c1cc2ccccc2[nH]1
inactive: [5] 95 % of control | [6] 95 % of control | [7] 90 % of control

CCOC12c3c4cccc3C(=O)c3cccc(c31)C(=O)c1cccc(c12)C4=O
inactive: [8] 103 % of control | [5] 105 % of control | [9] 111 % of control | [6] 93 % of control | [10] 109 % of control | [7] 96 % of control

O=C(/C=C\c1ccccc1)Nc1c(Cl)cc(Cl)cc1Cl
inactive: [11] 91 % of control | [12] 107 % of control | [13] 95 % of control

O=C(O)C(=O)Cc1nnn(-c2ccccc2)c1-c1ccccc1
inactive: dose: 75.0 mg/kg/injection, schedule: Q01DX001 (ip), vehicle: acetone 95 % of control | dose: 150.0 mg/kg/injection, schedule: Q01DX001 (ip), vehicle: acetone 101 % of control | dose: 300.0 mg/kg/injection, schedule: Q01DX001 (ip), vehicle: acetone 95 % of control

CCCCCCCCCCCCSCO
inactive: dose: 25.0 mg/kg/injection, schedule: Q01DX009 (ip), vehicle: saline with Tween-80 118 % of control | [14] 105 % of control | [8] 101 % of control and 91 % of control | [5] 105 % of control | [9] 90 % of control | [6] 96 % of control

OC(CC1=NNC(=S)NC1)(C(F)(F)F)C(F)(F)F
inactive: [5] 95 % of control | [6] 87 % of control

Cc1ccc(S(=O)(=O)NC(=O)c2c3ccccc3cc3ccccc23)cc1
inactive: dose: 100.0 mg/kg/injection, schedule: Q01DX001 (ip), vehicle: acetone 104 % of control | dose: 200.0 mg/kg/injection, schedule: Q01DX001 (ip), vehicle: acetone 104 % of control | dose: 400.0 mg/kg/injection, schedule: Q01DX001 (ip), vehicle: acetone 96 % of control

CC1(C)OC(=O)CC1CCCC(=O)O (stereo unspecified)
inactive: [11] 104 % of control | [12] 96 % of control | [13] 96 % of control

CC(=O)NC1CCCC(C)C1 (stereo unspecified)
inactive: [8] 101 % of control | [9] 106 % of control

CC(=O)OCC(OC(C)=O)C(OC1OC(COC(C)=O)C(OC(C)=O)C(OC(C)=O)C1OC(C)=O)C(OC(C)=O)C(C=O)OC(C)=O (stereo unspecified)
inactive: [1] 96 % of control | [2] 89 % of control | [8] 102 % of control | [5] 102 % of control | [15] 89 % of control | [9] 102 % of control | [6] 105 % of control | [10] 102 % of control | [7] 94 % of control

COc1ccc(C(=O)/C=C/c2ccc(OC)c(Br)c2)cc1
inactive: [3] 95 % of control | [4] 95 % of control | dose: 400.0 mg/kg/injection, schedule: Q04DX003 (ip), vehicle: Klucel (hydroxypropylcellulose) (HPC) 94 % of control

O=C(O)c1cc(-c2ccc(N(CCCl)CCCl)cc2)nc2ccccc12
inactive: dose: 100.0 mg/kg/injection, schedule: Q01DX001 (ip), vehicle: other 104 % of control | dose: 200.0 mg/kg/injection, schedule: Q01DX001 (ip), vehicle: other 104 % of control | dose: 400.0 mg/kg/injection, schedule: Q01DX001 (ip), vehicle: other 96 % of control

Fc1c(F)c(F)c(Oc2c(F)c(F)c(C(F)(F)F)c(F)c2F)c(F)c1F
inactive: [8] 102 % of control | [5] 94 % of control | [9] 98 % of control | [6] 92 % of control | [10] 98 % of control | [7] 92 % of control

N#CC(C#N)=CNc1ccc(S(N)(=O)=O)cc1
inactive: dose: 75.0 mg/kg/injection, schedule: Q01DX001 (ip), vehicle: saline 101 % of control | dose: 150.0 mg/kg/injection, schedule: Q01DX001 (ip), vehicle: saline 95 % of control | dose: 300.0 mg/kg/injection, schedule: Q01DX001 (ip), vehicle: saline 96 % of control

CN(C)CC/C=C1\c2ccccc2Sc2ccc(Cl)cc21
inactive: dose: 0.04 mg/kg/injection, schedule: Q03HX024 (ip), vehicle: saline 107 % of control | dose: 0.09 mg/kg/injection, schedule: Q03HX024 (ip), vehicle: saline 105 % of control | dose: 0.18 mg/kg/injection, schedule: Q03HX024 (ip), vehicle: saline 102 % of control | dose: 0.36 mg/kg/injection, schedule: Q01DX001 (ip), vehicle: Klucel (hydroxypropylcellulose) (HPC) 102 % of control | dose: 0.37 mg/kg/injection, schedule: Q03HX024 (ip), vehicle: saline 105 % of control | dose: 0.73 mg/kg/injection, schedule: Q01DX001 (ip), vehicle: Klucel (hydroxypropylcellulose) (HPC) 97 % of control | dose: 0.74 mg/kg/injection, schedule: Q03HX024 (ip), vehicle: saline 107 % of control | dose: 1.46 mg/kg/injection, schedule: Q01DX001 (ip), vehicle: Klucel (hydroxypropylcellulose) (HPC) 108 % of control | dose: 1.49 mg/kg/injection, schedule: Q03HX024 (ip), vehicle: Klucel (hydroxypropylcellulose) (HPC) 103 % of control | dose: 2.92 mg/kg/injection, schedule: Q01DX001 (ip), vehicle: Klucel (hydroxypropylcellulose) (HPC) 105 % of control | dose: 3.8 mg/kg/injection, schedule: Q01DX001 (ip), vehicle: Klucel (hydroxypropylcellulose) (HPC) 107 % of control | dose: 3.9 mg/kg/injection, schedule: Q01DX009 (ip), vehicle: Klucel (hydroxypropylcellulose) (HPC) 105 % of control | dose: 5.6 mg/kg/injection, schedule: Q01DX001 (ip), vehicle: saline 101 % of control | dose: 5.85 mg/kg/injection, schedule: Q01DX001 (ip), vehicle: Klucel (hydroxypropylcellulose) (HPC) 105 % of control | dose: 7.5 mg/kg/injection, schedule: Q01DX001 (ip), vehicle: Klucel (hydroxypropylcellulose) (HPC) 104 % of control | dose: 7.81 mg/kg/injection, schedule: Q01DX009 (ip), vehicle: Klucel (hydroxypropylcellulose) (HPC) 92 % of control | dose: 11.25 mg/kg/injection, schedule: Q01DX001 (ip), vehicle: saline 104 % of control | dose: 15.0 mg/kg/injection, schedule: Q01DX001 (ip), vehicle: Klucel (hydroxypropylcellulose) (HPC) 107 % of control | dose: 15.62 mg/kg/injection, schedule: Q01DX009 (ip), vehicle: Klucel (hydroxypropylcellulose) (HPC) 110 % of control | dose: 22.5 mg/kg/injection, schedule: Q01DX001 (ip), vehicle: saline 101 % of control | dose: 23.43 mg/kg/injection, schedule: Q01DX001 (ip), vehicle: Klucel (hydroxypropylcellulose) (HPC) 121 % of control | dose: 30.0 mg/kg/injection, schedule: Q01DX001 (ip), vehicle: Klucel (hydroxypropylcellulose) (HPC) 112 % of control | dose: 31.25 mg/kg/injection, schedule: Q01DX009 (ip), vehicle: Klucel (hydroxypropylcellulose) (HPC) 108 % of control | dose: 31.25 mg/kg/injection, schedule: Q04DX003 (ip), vehicle: Klucel (hydroxypropylcellulose) (HPC) 107 % of control

CC(C)OC(=S)Nc1ccccc1
inactive: [1] 102 % of control | dose: 100.0 mg/kg/injection, schedule: Q01DX001 (ip), vehicle: gum acacia 102 % of control | [2] 107 % of control | dose: 200.0 mg/kg/injection, schedule: Q01DX001 (ip), vehicle: gum acacia 98 % of control | [15] 98 % of control | dose: 400.0 mg/kg/injection, schedule: Q01DX001 (ip), vehicle: gum acacia 95 % of control

NC1CCCC[N-]1.NC1CCCC[N-]1.NC1CCCC[N-]1.[Cl][Cr]([Cl])[Cl] (stereo unspecified)
inactive: dose: 18.75 mg/kg/injection, schedule: Q04DX003 (ip), vehicle: saline 94 % of control | dose: 37.5 mg/kg/injection, schedule: Q04DX003 (ip), vehicle: saline 92 % of control | dose: 75.0 mg/kg/injection, schedule: Q04DX003 (ip), vehicle: saline 89 % of control

CCCCCCNC(N)=O
inactive: [14] 93 % of control and 100 % of control | [8] 100 % of control and 101 % of control | [9] 100 % of control and 101 % of control
